US20220143150A1 (ENZENE BIOSCIENCES LIMITED, priority 2019, published 2022)

What was measured:
[1] = Pharmacokinetic analysis in STZ-induced diabetes mellitus Wistar rats, single subcutaneous dose, serum ELISA; assay type: in vivo; details: male, rat, sc, STZ diabetic Wistar rats, single dose 5 mg/kg subcutaneous
Experimental: Streptozotocin (STZ), preferentially toxic to pancreatic beta cells, is commonly used to model […] diabetes mellitus (DM) in numerous species, including Wistar rat. 12-14 week-old male Wistar rats (300-380 g body weight) were selected for the study. Rats were randomly distributed to different groups based on ad-lib fed blood glucose and body weight. The diabetes mellitus (DM) was induced in Wister rats by single intraperitoneal injection of streptozotocin at 60 mg/kg STZ (n=6) in both control and test group for two weeks.
Basal glucose levels were recorded for all the animals before injecting STZ. All animals were again evaluated for the elevated blood levels after 15 days of STZ treatment. After the confirmation of high glucose levels animals were treated with single dose (5 mg/kg) of Liraglutide and D-Liraglutide by subcutaneous route.
Blood samples were collected at 0 (Pre-dose), 1, 2, 4, 8, 12, 24, 48, 72, 96, 120 and 144 h, post dose. At each time point, approximately, 0.3 mL of blood was withdrawn through retro orbital plexus under light isoflurane anesthesia in a labeled microfuge tube. All blood samples were centrifuged at 7000 rpm for 5 min at set temperature of 4° C. […]
The ELISA was performed for the quantitative measurement of the Liraglutide in the serum samples using Cloud-Clone Corp. (CEV769Ge 96 Tests) kit. […]

[2] = once-weekly subcutaneous injection, dose of 0.5 or 1 mg; cited from earlier work

Row | MRT [1] | Compound | half-life [2] | time to reach steady state [2]
1 | 34.8 h | CCCCCCCCCCCCCCCC(=O)N[C@@H](CCC(=O)NCCCC[C@H](NC(=O)[C@H](C)NC(=O)[C@H](C)NC(=O)[C@H](CCC(N)=O)NC(=O)CNC(=O)[C@H](CCC(=O)O)NC(=O)[C@H](CC(C)C)NC(=O)[C@H](Cc1ccc(O)cc1)NC(=O)[C@H](CO)NC(=O)[C@H](CO)NC(=O)[C@@H](NC(=O)[C@H](CC(=O)O)NC(=O)[C@H](CO)NC(=O)[C@@H](NC(=O)[C@H](Cc1ccccc1)NC(=O)[C@@H](NC(=O)CNC(=O)[C@H](CCC(=O)O)NC(=O)[C@H](C)NC(=O)[C@@H](N)Cc1cnc[nH]1)[C@@H](C)O)[C@@H](C)O)C(C)C)C(=O)N[C@@H](CCC(=O)O)C(=O)N[C@@H](Cc1ccccc1)C(=O)N[C@H](C(=O)N[C@@H](C)C(=O)N[C@@H](Cc1c[nH]c2ccccc12)C(=O)N[C@@H](CC(C)C)C(=O)N[C@H](C(=O)N[C@@H](CCCNC(=N)N)C(=O)NCC(=O)N[C@@H](CCCNC(=N)N)C(=O)NCC(=O)O)C(C)C)[C@@H](C)CC)C(=O)O [Liraglutide] | – | –
2 | – | semaglutide | 170 h | 4-5 weeks
